Reference: PubChem BioAssay AID292 (DTP/NCI, 2004)
Several values for one entry are separate records, joined by “and”; a condition that tells them apart may be missing. Equal entries are not always repeated. Toxic doses and inconclusive results are not listed.

Test system: B6C3F1 mice, ip Sarcoma M5076, median survival T/C
Experiment: NCI In Vivo Anticancer Drug Screen. Data for tumor model Sarcoma M5076 (intraperitoneal) in B6C3F1 mice
Conditions: endpoint: median survival time, higher = longer survival
Description: The antitumor activity of compounds was measured in mice bearing transplantable tumors. Survival or tumor size were measured and the results are expressed as the measurement made in the treated group (T) divided by the measurement made in the vehicle treated control group (C). The tumor model used in this assay is Sarcoma M5076 (intraperitoneal) in B6C3F1 mice

[1] = dose: 3.0 mg/kg/injection, schedule: Q04DX004 (ip), vehicle: saline
[2] = dose: 50.0 mg/kg/injection, schedule: Q04DX004 (ip), vehicle: Klucel (hydroxypropylcellulose) (HPC)
[3] = dose: 100.0 mg/kg/injection, schedule: Q04DX004 (ip), vehicle: Klucel (hydroxypropylcellulose) (HPC)
[4] = dose: 6.25 mg/kg/injection, schedule: Q04DX004 (ip), vehicle: Klucel (hydroxypropylcellulose) (HPC)
[5] = dose: 12.5 mg/kg/injection, schedule: Q04DX004 (ip), vehicle: Klucel (hydroxypropylcellulose) (HPC)
[6] = dose: 25.0 mg/kg/injection, schedule: Q04DX004 (ip), vehicle: Klucel (hydroxypropylcellulose) (HPC)
[7] = dose: 50.0 mg/kg/injection, schedule: Q04DX004 (ip), vehicle: saline
[8] = dose: 100.0 mg/kg/injection, schedule: Q04DX004 (ip), vehicle: saline
[9] = dose: 200.0 mg/kg/injection, schedule: Q04DX004 (ip), vehicle: saline
[10] = dose: 25.0 mg/kg/injection, schedule: Q04DX004 (ip), vehicle: saline
[11] = dose: 50.0 mg/kg/injection, schedule: Q04DX004 (ip), vehicle: saline with Tween-80
[12] = dose: 100.0 mg/kg/injection, schedule: Q04DX004 (ip), vehicle: saline with Tween-80
[13] = dose: 200.0 mg/kg/injection, schedule: Q04DX004 (ip), vehicle: saline with Tween-80
[14] = dose: 400.0 mg/kg/injection, schedule: Q04DX004 (ip), vehicle: saline with Tween-80
[15] = dose: 800.0 mg/kg/injection, schedule: Q04DX004 (ip), vehicle: saline with Tween-80
[16] = dose: 125.0 mg/kg/injection, schedule: Q04DX004 (ip), vehicle: saline with Tween-80
[17] = dose: 250.0 mg/kg/injection, schedule: Q04DX004 (ip), vehicle: saline with Tween-80
[18] = dose: 25.0 mg/kg/injection, schedule: Q04DX004 (ip), vehicle: saline with Tween-80
[19] = dose: 200.0 mg/kg/injection, schedule: Q04DX004 (ip), vehicle: Klucel (hydroxypropylcellulose) (HPC)

[Cl][Hg][Cl]
T/C (dose: 0.38 mg/kg/injection, schedule: Q04DX004 (ip), vehicle: saline): 93 % of control | T/C (dose: 0.39 mg/kg/injection, schedule: Q04DX004 (ip), vehicle: saline): 96 % of control | T/C (dose: 0.75 mg/kg/injection, schedule: Q04DX004 (ip), vehicle: saline): 96 % of control | T/C (dose: 0.78 mg/kg/injection, schedule: Q04DX004 (ip), vehicle: saline): 86 % of control | T/C (dose: 1.5 mg/kg/injection, schedule: Q04DX004 (ip), vehicle: saline): 96 % of control | T/C (dose: 1.56 mg/kg/injection, schedule: Q04DX004 (ip), vehicle: saline): 87 % of control | T/C [1]: 93 % of control | T/C (dose: 3.12 mg/kg/injection, schedule: Q04DX004 (ip), vehicle: saline): 87 % of control

COc1cc2c(c3c1c(=O)c1cccc(F)c1n3C)C=CC(C)(C)O2
T/C [2]: 112 % of control | T/C [3]: 120 % of control

CCCCCC[Se][Se]CCCCCC
T/C (dose: 3.12 mg/kg/injection, schedule: Q04DX004 (ip), vehicle: Klucel (hydroxypropylcellulose) (HPC)): 123 % of control | T/C [4]: 106 % of control | T/C [5]: 114 % of control | T/C [6]: 115 % of control

CC(NNC(=S)N(C)C1CCCCC1)c1cc2ccccc2cn1 (centres undefined)
T/C [7]: 102 % of control | T/C [8]: 105 % of control | T/C [9]: 111 % of control

Cc1ccc(C2=CSC3=NCCN23)cc1Cl
T/C [1]: 103 % of control | T/C (dose: 6.0 mg/kg/injection, schedule: Q04DX004 (ip), vehicle: saline): 107 % of control | T/C (dose: 12.0 mg/kg/injection, schedule: Q04DX004 (ip), vehicle: saline): 104 % of control | T/C (dose: 24.0 mg/kg/injection, schedule: Q04DX004 (ip), vehicle: saline): 100 % of control | T/C [10]: 104 % of control | T/C [7]: 96 % of control

COc1ccc(CNC(=O)C2C(=O)C(=O)N(Cc3ccc(OC)c(OC)c3)C2=O)cc1OC (centres undefined)
T/C (dose: 28.13 mg/kg/injection, schedule: Q04DX004 (ip), vehicle: Klucel (hydroxypropylcellulose) (HPC)): 95 % of control | T/C (dose: 56.25 mg/kg/injection, schedule: Q04DX004 (ip), vehicle: Klucel (hydroxypropylcellulose) (HPC)): 100 % of control | T/C (dose: 112.5 mg/kg/injection, schedule: Q04DX004 (ip), vehicle: Klucel (hydroxypropylcellulose) (HPC)): 97 % of control | T/C (dose: 225.0 mg/kg/injection, schedule: Q04DX004 (ip), vehicle: Klucel (hydroxypropylcellulose) (HPC)): 94 % of control | T/C (dose: 450.0 mg/kg/injection, schedule: Q04DX004 (ip), vehicle: Klucel (hydroxypropylcellulose) (HPC)): 92 % of control

CCOC(=O)CC1(C)SCCN1C(=O)OCC (centres undefined)
T/C [11]: 114 % of control | T/C [12]: 114 % of control | T/C [13]: 122 % of control | T/C [14]: 103 % of control | T/C [15]: 98 % of control

NC(C(=O)O)C1=CCCCCC1 (centres undefined)
T/C (dose: 16.25 mg/kg/injection, schedule: Q04DX004 (ip), vehicle: Klucel (hydroxypropylcellulose) (HPC)): 100 % of control | T/C (dose: 32.5 mg/kg/injection, schedule: Q04DX004 (ip), vehicle: Klucel (hydroxypropylcellulose) (HPC)): 111 % of control | T/C (dose: 65.0 mg/kg/injection, schedule: Q04DX004 (ip), vehicle: Klucel (hydroxypropylcellulose) (HPC)): 104 % of control | T/C (dose: 130.0 mg/kg/injection, schedule: Q04DX004 (ip), vehicle: Klucel (hydroxypropylcellulose) (HPC)): 95 % of control | T/C (dose: 260.0 mg/kg/injection, schedule: Q04DX004 (ip), vehicle: Klucel (hydroxypropylcellulose) (HPC)): 100 % of control

Cn1c(=S)[nH]n(CCOc2ccccc2)c1=S
T/C (dose: 31.25 mg/kg/injection, schedule: Q04DX004 (ip), vehicle: saline with Tween-80): 105 % of control | T/C (dose: 62.5 mg/kg/injection, schedule: Q04DX004 (ip), vehicle: saline with Tween-80): 99 % of control | T/C [16]: 101 % of control | T/C [17]: 100 % of control

O=C1CN2CCN3CC(=O)NC(=O)[C@H]3[C@@H]2C(=O)N1
T/C (dose: 31.0 mg/kg/injection, schedule: Q04DX004 (ip), vehicle: saline with Tween-80): 93 % of control | T/C (dose: 62.0 mg/kg/injection, schedule: Q04DX004 (ip), vehicle: saline with Tween-80): 94 % of control | T/C [16]: 93 % of control | T/C [17]: 100 % of control | T/C (dose: 500.0 mg/kg/injection, schedule: Q04DX004 (ip), vehicle: saline with Tween-80): 98 % of control

COc1cc(C(C)(C)C)cc(OC)c1C(O)(c1c(OC)cc(C(C)(C)C)cc1OC)c1c(OC)cc(C(C)(C)C)cc1OC
T/C [18]: 123 % of control | T/C [11]: 116 % of control | T/C [12]: 108 % of control | T/C [13]: 123 % of control

CN1C=C/C(=C/[N+](=O)[O-])N(C)C1=O
T/C [6]: 103 % of control | T/C [2]: 103 % of control | T/C [3]: 99 % of control | T/C [19]: 103 % of control

Cc1nc2ccccc2c(N)c1-c1cc(C)c2c(C)nc3ccccc3c2n1
T/C [4]: 97 % of control | T/C [5]: 91 % of control | T/C [6]: 90 % of control and 94 % of control and 101 % of control | T/C [2]: 92 % of control and 98 % of control | T/C [3]: 96 % of control and 100 % of control | T/C [19]: 99 % of control | T/C (dose: 400.0 mg/kg/injection, schedule: Q04DX004 (ip), vehicle: Klucel (hydroxypropylcellulose) (HPC)): 106 % of control

CC(C)(C)c1noc2c1C(=O)c1ccccc1-2
T/C [18]: 102 % of control | T/C [11]: 105 % of control | T/C [12]: 100 % of control | T/C [13]: 90 % of control

O=C1N[C@H]2[C@H](O)[C@H](O)[C@@H](O)[C@H](O)[C@@H]2c2cc3c(c(O)c21)OCO3
T/C (dose: 1.5 mg/kg/injection, schedule: Q04DX004 (ip), vehicle: saline + alcohol): 115 % of control and 121 % of control | T/C (dose: 3.0 mg/kg/injection, schedule: Q01DX009 (ip), vehicle: saline + alcohol): 162 % of control and 163 % of control | T/C (dose: 6.0 mg/kg/injection, schedule: Q01DX009 (ip), vehicle: saline + alcohol): 177 % of control | T/C (dose: 6.25 mg/kg/injection, schedule: Q01DX009 (ip), vehicle: saline + alcohol): 152 % of control

CN(C)CCC(=O)C(=Cc1ccc(O)cc1)C(=O)CCN(C)C
T/C [10]: 103 % of control | T/C [7]: 100 % of control | T/C [8]: 104 % of control | T/C [9]: 100 % of control

Oc1c(Cl)cc(Cl)cc1C1Nc2ccccc2-n2cccc21 (centres undefined)
T/C (dose: 12.5 mg/kg/injection, schedule: Q04DX004 (ip), vehicle: saline with Tween-80): 90 % of control | T/C [18]: 88 % of control | T/C [11]: 86 % of control and 92 % of control | T/C [14]: 87 % of control | T/C [15]: 91 % of control

O=S1(=O)CS(=O)(=O)OCCO1
T/C (dose: 6.25 mg/kg/injection, schedule: Q01DX009 (oral), vehicle: Klucel (hydroxypropylcellulose) (HPC)): 160 % of control | T/C [4]: 165 % of control | T/C (dose: 12.5 mg/kg/injection, schedule: Q01DX001 (oral), vehicle: Klucel (hydroxypropylcellulose) (HPC)): 109 % of control | T/C (dose: 12.5 mg/kg/injection, schedule: Q01DX009 (oral), vehicle: Klucel (hydroxypropylcellulose) (HPC)): 192 % of control | T/C [5]: 180 % of control | T/C (dose: 25.0 mg/kg/injection, schedule: Q01DX009 (oral), vehicle: Klucel (hydroxypropylcellulose) (HPC)): 300 % of control | T/C [6]: 267 % of control and 290 % of control | T/C (dose: 50.0 mg/kg/injection, schedule: Q01DX009 (oral), vehicle: Klucel (hydroxypropylcellulose) (HPC)): 300 % of control | T/C [2]: 267 % of control and 300 % of control | T/C (dose: 100.0 mg/kg/injection, schedule: Q01DX001 (oral), vehicle: Klucel (hydroxypropylcellulose) (HPC)): 300 % of control

O=CC(NC(=O)N(CCCl)N=O)C(O)C(O)C(O)CO (centres undefined)
T/C (dose: 1.25 mg/kg/injection, schedule: Q04DX005 (ip), vehicle: saline): 319 % of control | T/C (dose: 2.5 mg/kg/injection, schedule: Q04DX005 (ip), vehicle: saline): 319 % of control | T/C (dose: 5.0 mg/kg/injection, schedule: Q04DX005 (ip), vehicle: saline): 319 % of control | T/C (dose: 10.0 mg/kg/injection, schedule: Q04DX005 (ip), vehicle: saline): 319 % of control

COc1cc(C(C)c2cc3c(cc2OCCO)OCO3)cc(OC)c1OC (centres undefined)
T/C [12]: 108 % of control | T/C [13]: 104 % of control

CCN(CC)c1ccc2[nH]c3c(C(N)=O)cc(=O)c(=O)c=3oc2c1
T/C [18]: 105 % of control | T/C [11]: 108 % of control | T/C [12]: 106 % of control | T/C [13]: 96 % of control
